Assay results taken from paper PMC4583475, “Receptor Polymorphism and Genomic Structure Interact to Shape Bitter Taste Perception” (PLoS Genetics, 2015).

Key:
Type in all cases: cell-based, human
TAS2R31-H4 = assay: Calcium imaging in HEK 293T Gα16gust44 cells transfected with TAS2R31-H4
Description: (§1) Allelic responses to agonists were quantified using in vitro heterologous expression assays designed in previous studies of TAS2R receptor function, which successfully mimic responses in vivo with respect to both magnitude and concentration range [17, 23, 25, 26, 46]. DNA fragments containing TAS2R coding sequences were first amplified from genomic DNA by PCR using a proofreading polymerase (PfuUltra II Fusion HotStart DNA Polymerase; Agilent Technologies, Santa Clara, CA, USA) and cloned into a plasmid vector according to the manufacturer’s protocol (Zero Blunt TOPO PCR Cloning Kit; Life Technologies). […]
(§2) Functional assays were carried out in HEK 293T cells stably expressing the G protein chimera Gα16gust44 and transiently transfected with TAS2R alleles subcloned into the expression vector [78]. Calcium imaging was performed using an automated fluorometric imaging plate reader by exposing transfected cells to test compounds dissolved in assay buffer or to assay buffer alone (FLIPR Tetra; Molecular Devices, LLC, Sunnyvale, CA, USA). Changes in cytosolic calcium levels were monitored by measuring fluorescence intensity of a calcium-sensitive dye previously added (Fluo-4 AM; Life Technologies). […]
(§3) Prior to final analysis, fluorescence data from functional assays, expressed in relative fluorescence units (RFU), underwent three corrections. […]

TAS2R31-H3 = assay: Calcium imaging in HEK 293T Gα16gust44 cells transfected with TAS2R31-H3
Description: as §1, §2, §3

TAS2R31-H1 = assay: Calcium imaging in HEK 293T Gα16gust44 cells transfected with TAS2R31-H1
Description: as §1, §2, §3

TAS2R31-H2 = assay: Calcium imaging in HEK 293T Gα16gust44 cells transfected with TAS2R31-H2
Description: as §1, §2, §3

C=C[C@H]1C[N@@]2CC[C@H]1C[C@H]2[C@H](O)c1ccnc2ccc(OC)cc12 [quinine]
receptor variant response (TAS2R31-H4): intermediates
receptor variant response (TAS2R31-H3): insensitive
receptor variant response (TAS2R31-H1): intermediates
receptor variant response (TAS2R31-H2): sensitive
